Patent publication US11260070B2, “Methods of treating feline coronavirus infections” (GILEAD SCIENCES, INC., priority 2017, dated 2022)
Read-outs that look alike come from different tables or passages of the source.

Legend:
feline coronavirus = assay: In vitro antiviral assay: virus-induced cytopathic effect in CRFK cells (crystal violet staining); type: cell-based
Protocol: Compound 1 was screened for activity against feline Coronaviruses in an in vitro assay. Serial dilutions of Compound 1 were mixed with 2.5×10^4 copies of feline coronavirus and added in sextuplicate to 96 well plates with pre-seeded CRFK cells. The plates were incubated for 72 hours followed by a staining of the cell culture monolayers with crystal violet. The level of virus-induced cytopathic effect was quantified visually and using a plate reader. Positive control wells comprised the virus without Compound 1. Negative control wells lacked both virus and Compound 1. The EC50 was calculated by regression analysis.

[1] = CellTox Green Cytotoxicity Assay in uninfected CRFK cells; type: cell-based; details: cat (feline), 72 hour incubation
Protocol: Compound 1 was screened for cytotoxicity in uninfected CRFK cells using a commercially available CellTox Green Cytotoxicity Assay (Promega). The assayed was performed in a 96 well place formate using serial dilution of Compound 1 in sextuplicate. Compound concentration associated with 50% cytotoxicity (CC50) following 72 hour incubation was calculated by regression analysis.

N#C[C@@]1(c2ccc3c(N)ncnn23)O[C@H](CO)[C@@H](O)[C@H]1O [Compound 1, (2R,3R,4S,5R)-2-(4-aminopyrrolo[2,1-f][1,2,4]triazin-7-yl)-3,4-dihydroxy-5-(hydroxymethyl)tetrahydrofuran-2-carbonitrile]
EC50 (feline coronavirus; Alphacoronavirus 1, CRFK, read-out: EC50 (FIG. 1 legend)): 750 nM | EC50 (feline coronavirus; Alphacoronavirus 1, feline coronavirus in CRFK cells, 72 hours incubation, regression analysis (Table 1), read-out: EC50): 770 nM | inhibition of feline coronavirus (feline coronavirus; CRFK cells, at 3, 2 and 1 μM, FIG. 1): ~100% | CC50 at 72 h [1]: > 100000 nM
